# Assay results from EP0994871B1, “NOVEL SUBSTITUTED NAPHTHOPYRANS” (TRANSITIONS OPTICAL, INC., priority 1997, dated 1998).
# Columns and labels:
# [1] = Photochromic response of polymeric test squares on an optical bench; format: physicochemical; conditions: for ΔOD@ SATURATION: UV exposure continued for 20 minutes; for ΔOD@ SATURATION / ΔOD/MIN SENSITIVITY: test squares, 75°F (23.9°C); for ΔOD/MIN SENSITIVITY: measured over the first five (5) seconds of UV exposure, expressed on a per minute basis; for Bleach (T1/2): time for absorbance of the activated form in the test squares to reach one half the highest absorbance at room temperature (75°F, 23.9°C) after removal of activating light
# Procedure: Testing was done with the photochromic naphthopyrans of the Examples incorporated into polymeric samples by the following method. The quantity of naphthopyran calculated to yield a 1.5 times 10^-3 molal solution was added to a flask containing 50 grams of a monomer blend of 4 parts ethoxylated bisphenol A dimethacrylate (BPA 2EO DMA), 1 part poly(ethylene glycol) 600 dimethacrylate, and 0.033 weight percent 2,2'-azobis(2-methyl propionitrile) (AIBN). The naphthopyran was dissolved into the monomer blend by stirring and gentle heating, if necessary. After a clear solution was obtained, it was poured into a flat sheet mold having the interior dimensions of 2.2 mm x 6 inches (15.24 cm) x 6 inches (15.24 cm). The mold was sealed and placed in a horizontal air flow, programmable oven set to increase the temperature from 40°C. to 95°C. over a 5 hour interval, hold the temperature at 95°C. for 3 hours and then lower it to 60°C. for at least 2 hours before the end of the curing cycle. After the mold was opened, the polymer sheet was cut using a diamond blade saw into 2 inch (5.1 centimeters) test squares.
# The photochromic test squares prepared in Part A were tested for photochromic response rates on an optical bench. Prior to testing on the optical bench, the photochromic test squares were exposed to 365 nanometer ultraviolet light for about 15 minutes to activate the photochromic compounds and then placed into a 76°C oven for about 15 minutes to bleach or inactivate the photochromic compounds. The test squares were then cooled to room temperature, exposed to fluorescent room lighting for at least 2 hours and then kept covered for at least 2 hours prior to testing on an optical bench maintained at 75°F (23.9°C). The bench was fitted with a 150 watt Xenon arc lamp, a remote controlled shutter, a copper sulfate bath acting as a heat sink for the arc lamp, a Schott WG-320 nm cut-off filter which removes short wavelength radiation; neutral density filter(s) and a sample holder in which the square to be tested was inserted. A collimated beam of light from a tungsten lamp was passed through the square at a small angle normal to the square. After passing through the square, the light from the tungsten lamp was directed through a photopic filter attached to a detector. The photopic filter passes wavelengths such that the detector mimics the response of the human eye. The output signals from the detector(s) were processed by a radiometer.
# Change in optical density (ΔOD) was determined by inserting a test square in the bleached state into the sample holder, adjusting the transmittance scale to 100%, opening the shutter from the Xenon lamp to provide ultraviolet radiation to change the test square from the bleached state to an activated (i.e., darkened) state, measuring the transmittance in the activated state, and calculating the change in optical density according to the formula A OD=log(100/%Ta) where %Ta is the percent transmittance in the activated state and the logarithm is to the base 10.
# (§1) The Δ OD/Min, which represents the sensitivity of the photochromic compound's response to UV light, was measured over the first five (5) seconds of UV exposure, then expressed on a per minute basis. The saturation optical density (OD) was taken under identical conditions as the A OD/Min, except UV exposure was continued for 20 minutes for the examples in Table 1. The lambda max reported in Table 1 is the wavelength in the visible spectrum at which the maximum absorption of the activated (colored) form of the photochromic compound in a diethylene glycol bis(allyl carbonate) composition occurs. The Bleach Rate (T 1/2) is the time interval in seconds for the absorbance of the activated form of the naphthopyran in the test squares to reach one half the highest absorbance at room temperature (75°F, 23.9°C) after removal of the source of activating light.
# [2] = Lambda max of the activated (colored) form in a diethylene glycol bis(allyl carbonate) composition; format: physicochemical; conditions: wavelength in the visible spectrum of maximum absorption of the activated (colored) form in a diethylene glycol bis(allyl carbonate) composition
# Procedure: as §1
compound,measurement,setting,value
"COc1ccc(C2(c3ccc(OC)cc3)C=Cc3c(-c4cccn4C)c(OC(C)=O)c4ccccc4c3O2)cc1 [Example 1, 2,2-bis(4-methoxyphenyl)-5-(N-methylpyrrol-2-yl)-6-acetoxy-2H-naphtho[1,2-b]pyran]",ΔOD@ SATURATION,[1],0.25
same,ΔOD/MIN SENSITIVITY,[1],0.16
same,Bleach (T1/2),[1],1.23 min
same,LAMBDA MAX (VISIBLE),[2],513 nm
"COc1ccc(C2(c3ccc(OC)cc3)C=Cc3c(-c4ccc(OC)cc4OC)c(OC(C)=O)c4ccccc4c3O2)cc1 [Example 2, 2,2-bis(4-methoxyphenyl)-5-(2,4-dimethoxyphenyl)-6-acetoxy-2H-naphtho[1,2-b]pyran]",ΔOD@ SATURATION,[1],0.55
same,ΔOD/MIN SENSITIVITY,[1],0.15
same,Bleach (T1/2),[1],4.13 min
same,LAMBDA MAX (VISIBLE),[2],511 nm
"COc1ccc(C2(c3ccc(OC)cc3)C=Cc3c(Sc4ccccc4)c(O)c4ccccc4c3O2)cc1 [Example 3, 2,2-bis(4-methoxyphenyl)-5-phenylthio-6-hydroxy-2H-naphtho[1,2-b]pyran]",ΔOD@ SATURATION,[1],1.76
same,ΔOD/MIN SENSITIVITY,[1],0.34
same,Bleach (T1/2),[1],>10 min
same,LAMBDA MAX (VISIBLE),[2],516 nm
"COc1ccc(C2(c3ccc(OC)cc3)C=Cc3c(Sc4ccccc4)c(OC(C)=O)c4ccccc4c3O2)cc1 [Example 4, 2,2-bis(4-methoxyphenyl)-5-phenylthio-6-acetoxy-2H-naphtho[1,2-b]pyran]",ΔOD@ SATURATION,[1],0.23
same,ΔOD/MIN SENSITIVITY,[1],0.22
same,Bleach (T1/2),[1],0.7 min
same,LAMBDA MAX (VISIBLE),[2],516 nm
"COc1ccc(C2(c3ccc(OC)cc3)C=Cc3c(Cl)c(OC(C)=O)c4ccccc4c3O2)cc1 [Example 5, 2,2-bis(4-methoxyphenyl)-5-chloro-6-acetoxy-2H-naphtho[1,2-b]pyran]",ΔOD@ SATURATION,[1],0.07
same,ΔOD/MIN SENSITIVITY,[1],0.08
same,Bleach (T1/2),[1],0.9 min
same,LAMBDA MAX (VISIBLE),[2],462 nm
"COc1ccc(C2(c3ccc(OC)cc3)C=Cc3c(C)c(OC(C)=O)c4ccccc4c3O2)cc1 [Example 6, 2,2-bis(4-methoxyphenyl)-5-methyl-6-acetoxy-2H-naphtho[1,2-b]pyran]",ΔOD@ SATURATION,[1],0.37
same,ΔOD/MIN SENSITIVITY,[1],0.14
same,Bleach (T1/2),[1],2 min
same,LAMBDA MAX (VISIBLE),[2],506 nm
"Oc1c(Sc2ccccc2)c2c(c3ccccc13)OC1(C=C2)C2CC3CC(C2)CC1C3 (stereo not drawn) [Example 7, 2,2'-spiroadamantylene-5-phenylthio-6-hydroxy-2H-naphtho[1,2-b]pyran]",ΔOD@ SATURATION,[1],0.47
same,ΔOD/MIN SENSITIVITY,[1],0.15
same,LAMBDA MAX (VISIBLE),[2],462 nm
"CC(=O)Oc1c(Sc2ccccc2)c2c(c3ccccc13)OC1(C=C2)C2CC3CC(C2)CC1C3 (stereo not drawn) [Example 8, 2,2'-spiroadamantylene-5-phenylthio-6-acetoxy-2H-naphtho[1,2-b]pyran]",ΔOD@ SATURATION,[1],0.04
same,ΔOD/MIN SENSITIVITY,[1],0.10
same,LAMBDA MAX (VISIBLE),[2],459 nm
"COc1c(C)c2c(c3ccccc13)OC1(C=C2)C2CC3CC(C2)CC1C3 (stereo not drawn) [Example 9, 2,2'-spiroadamantylene-5-methyl-6-methoxy-2H-naphtho[1,2-b]pyran]",ΔOD@ SATURATION,[1],0.17
same,ΔOD/MIN SENSITIVITY,[1],0.12
same,LAMBDA MAX (VISIBLE),[2],462 nm
"COc1ccc(C2(c3ccc(OC)cc3)C=Cc3c(C(O)(c4ccccc4)c4ccccc4)c(O)c4ccccc4c3O2)cc1 [Example 10, 2,2-bis(4-methoxyphenyl)-5-diphenylmethylol-6-hydroxy-2H-naphtho[1,2-b]pyran]",ΔOD@ SATURATION,[1],0.32
same,ΔOD/MIN SENSITIVITY,[1],0.05
same,LAMBDA MAX (VISIBLE),[2],482 nm
